# Columns and labels:
# [1] = target: Casein kinase I isoform alpha (Homo sapiens, UniProt P48729); assay: Selectivity interaction (KinomeScan (DiscoverX)) EUB0000229b CSNK1A1; conditions: at 10 µM
# [2] = target: T1, MAP/microtubule affinity-regulating kinase 4 (Homo sapiens) (UniProt Q96L34); assay: Selectivity interaction (KinomeScan (DiscoverX)) EUB0000666a MARK4; conditions: at 10 µM
# T1 sequence (whole entry): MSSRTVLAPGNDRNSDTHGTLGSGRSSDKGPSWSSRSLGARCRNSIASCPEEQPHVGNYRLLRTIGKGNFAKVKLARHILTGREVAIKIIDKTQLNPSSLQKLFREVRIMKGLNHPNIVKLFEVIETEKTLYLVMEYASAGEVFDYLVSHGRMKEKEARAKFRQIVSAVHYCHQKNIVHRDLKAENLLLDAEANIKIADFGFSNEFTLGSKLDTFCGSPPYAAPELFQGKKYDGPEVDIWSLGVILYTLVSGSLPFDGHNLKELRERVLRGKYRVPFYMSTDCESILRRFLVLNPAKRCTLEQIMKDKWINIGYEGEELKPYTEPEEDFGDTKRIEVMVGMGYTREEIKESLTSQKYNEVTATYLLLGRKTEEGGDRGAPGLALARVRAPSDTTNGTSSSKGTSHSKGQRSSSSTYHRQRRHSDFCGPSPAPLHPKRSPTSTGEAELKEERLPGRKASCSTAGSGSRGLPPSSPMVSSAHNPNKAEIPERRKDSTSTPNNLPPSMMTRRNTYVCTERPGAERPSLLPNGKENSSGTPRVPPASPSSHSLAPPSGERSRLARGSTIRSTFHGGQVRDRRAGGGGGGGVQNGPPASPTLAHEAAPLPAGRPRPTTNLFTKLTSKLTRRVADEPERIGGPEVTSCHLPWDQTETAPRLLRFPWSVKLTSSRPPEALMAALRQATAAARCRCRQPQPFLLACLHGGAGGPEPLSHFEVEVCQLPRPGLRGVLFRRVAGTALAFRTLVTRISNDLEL
# [3] = target: T2, Membrane-associated tyrosine- and threonine-specific cdc2-inhibitory kinase (Homo sapiens) (UniProt Q99640); assay: Selectivity interaction (KinomeScan (DiscoverX)) EUB0000666a PKMYT1; conditions: at 10 µM
# T2 sequence (whole entry): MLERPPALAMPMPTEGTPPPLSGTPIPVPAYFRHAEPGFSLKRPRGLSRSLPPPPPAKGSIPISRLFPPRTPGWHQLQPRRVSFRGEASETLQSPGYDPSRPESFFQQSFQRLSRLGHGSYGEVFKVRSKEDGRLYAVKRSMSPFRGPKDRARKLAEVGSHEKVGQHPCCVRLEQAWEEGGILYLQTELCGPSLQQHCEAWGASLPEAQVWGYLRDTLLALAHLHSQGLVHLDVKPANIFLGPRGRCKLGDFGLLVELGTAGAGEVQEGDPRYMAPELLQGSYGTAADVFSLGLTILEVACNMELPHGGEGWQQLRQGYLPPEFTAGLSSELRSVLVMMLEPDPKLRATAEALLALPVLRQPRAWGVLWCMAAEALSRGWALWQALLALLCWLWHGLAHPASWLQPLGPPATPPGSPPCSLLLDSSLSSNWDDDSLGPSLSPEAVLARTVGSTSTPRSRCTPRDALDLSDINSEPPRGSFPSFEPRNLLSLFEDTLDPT
# [4] = target: T3, Testis-specific serine/threonine-protein kinase 1 (Homo sapiens) (UniProt Q9BXA7); assay: Selectivity interaction (KinomeScan (DiscoverX)) EUB0000618a TSSK1A; conditions: at 10 µM
# T3 sequence (whole entry): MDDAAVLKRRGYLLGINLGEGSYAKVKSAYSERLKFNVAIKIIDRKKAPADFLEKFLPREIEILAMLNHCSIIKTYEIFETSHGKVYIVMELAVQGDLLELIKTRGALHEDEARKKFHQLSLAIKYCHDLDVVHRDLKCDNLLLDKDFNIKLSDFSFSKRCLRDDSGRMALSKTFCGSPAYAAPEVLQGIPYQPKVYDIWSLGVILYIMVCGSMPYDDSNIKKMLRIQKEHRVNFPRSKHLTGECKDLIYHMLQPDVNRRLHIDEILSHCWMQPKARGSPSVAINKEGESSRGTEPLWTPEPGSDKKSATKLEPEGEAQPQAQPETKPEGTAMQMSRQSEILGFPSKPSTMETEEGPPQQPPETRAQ
# [5] = target: Calcium/calmodulin-dependent protein kinase type 1 (Homo sapiens) (UniProt Q14012); assay: Selectivity interaction (ActivX KiNativ screen (kinase selectivity in THP-1 cell lysates)) EUB0000639a CAMK1; type: subcellular; conditions: lysate
# [6] = target: T4, Protein kinase C epsilon type (Homo sapiens) (UniProt Q02156); assay: Selectivity interaction (Kinase panel (Invitrogen)) EUB0000639a PRKCE; conditions: at 200 nM
# T4 sequence (whole entry): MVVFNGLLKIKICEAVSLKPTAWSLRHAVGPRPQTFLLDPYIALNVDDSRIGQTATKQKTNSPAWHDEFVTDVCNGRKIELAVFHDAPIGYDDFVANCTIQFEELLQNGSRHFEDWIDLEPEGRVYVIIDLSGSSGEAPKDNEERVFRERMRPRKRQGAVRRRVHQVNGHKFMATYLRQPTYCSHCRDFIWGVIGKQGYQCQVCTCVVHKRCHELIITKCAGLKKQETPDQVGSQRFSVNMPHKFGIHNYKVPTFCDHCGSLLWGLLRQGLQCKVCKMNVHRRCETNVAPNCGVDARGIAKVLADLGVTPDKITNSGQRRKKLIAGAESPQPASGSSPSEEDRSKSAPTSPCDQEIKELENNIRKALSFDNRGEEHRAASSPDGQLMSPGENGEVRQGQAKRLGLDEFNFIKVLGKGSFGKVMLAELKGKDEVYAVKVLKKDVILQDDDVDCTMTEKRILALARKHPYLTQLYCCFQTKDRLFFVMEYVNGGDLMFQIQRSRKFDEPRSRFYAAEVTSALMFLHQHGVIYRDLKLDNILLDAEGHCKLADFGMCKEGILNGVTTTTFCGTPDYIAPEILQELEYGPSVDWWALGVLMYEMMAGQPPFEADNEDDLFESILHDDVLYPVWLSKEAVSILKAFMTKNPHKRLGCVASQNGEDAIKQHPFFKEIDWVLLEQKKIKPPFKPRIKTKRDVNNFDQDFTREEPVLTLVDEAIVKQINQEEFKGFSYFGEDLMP
# [7] = target: Ephrin type-A receptor 5 (Homo sapiens) (UniProt P54756); conditions: at 10 µM
# Misshapen-like kinase 1 = Misshapen-like kinase 1 (Homo sapiens, UniProt Q8N4C8); assay: Selectivity interaction (KinomeScan (DiscoverX)) EUB0000092b MINK1; conditions: at 10 µM
# Misshapen-like kinase 1, sequence (Q8N4C8 whole entry, looked up): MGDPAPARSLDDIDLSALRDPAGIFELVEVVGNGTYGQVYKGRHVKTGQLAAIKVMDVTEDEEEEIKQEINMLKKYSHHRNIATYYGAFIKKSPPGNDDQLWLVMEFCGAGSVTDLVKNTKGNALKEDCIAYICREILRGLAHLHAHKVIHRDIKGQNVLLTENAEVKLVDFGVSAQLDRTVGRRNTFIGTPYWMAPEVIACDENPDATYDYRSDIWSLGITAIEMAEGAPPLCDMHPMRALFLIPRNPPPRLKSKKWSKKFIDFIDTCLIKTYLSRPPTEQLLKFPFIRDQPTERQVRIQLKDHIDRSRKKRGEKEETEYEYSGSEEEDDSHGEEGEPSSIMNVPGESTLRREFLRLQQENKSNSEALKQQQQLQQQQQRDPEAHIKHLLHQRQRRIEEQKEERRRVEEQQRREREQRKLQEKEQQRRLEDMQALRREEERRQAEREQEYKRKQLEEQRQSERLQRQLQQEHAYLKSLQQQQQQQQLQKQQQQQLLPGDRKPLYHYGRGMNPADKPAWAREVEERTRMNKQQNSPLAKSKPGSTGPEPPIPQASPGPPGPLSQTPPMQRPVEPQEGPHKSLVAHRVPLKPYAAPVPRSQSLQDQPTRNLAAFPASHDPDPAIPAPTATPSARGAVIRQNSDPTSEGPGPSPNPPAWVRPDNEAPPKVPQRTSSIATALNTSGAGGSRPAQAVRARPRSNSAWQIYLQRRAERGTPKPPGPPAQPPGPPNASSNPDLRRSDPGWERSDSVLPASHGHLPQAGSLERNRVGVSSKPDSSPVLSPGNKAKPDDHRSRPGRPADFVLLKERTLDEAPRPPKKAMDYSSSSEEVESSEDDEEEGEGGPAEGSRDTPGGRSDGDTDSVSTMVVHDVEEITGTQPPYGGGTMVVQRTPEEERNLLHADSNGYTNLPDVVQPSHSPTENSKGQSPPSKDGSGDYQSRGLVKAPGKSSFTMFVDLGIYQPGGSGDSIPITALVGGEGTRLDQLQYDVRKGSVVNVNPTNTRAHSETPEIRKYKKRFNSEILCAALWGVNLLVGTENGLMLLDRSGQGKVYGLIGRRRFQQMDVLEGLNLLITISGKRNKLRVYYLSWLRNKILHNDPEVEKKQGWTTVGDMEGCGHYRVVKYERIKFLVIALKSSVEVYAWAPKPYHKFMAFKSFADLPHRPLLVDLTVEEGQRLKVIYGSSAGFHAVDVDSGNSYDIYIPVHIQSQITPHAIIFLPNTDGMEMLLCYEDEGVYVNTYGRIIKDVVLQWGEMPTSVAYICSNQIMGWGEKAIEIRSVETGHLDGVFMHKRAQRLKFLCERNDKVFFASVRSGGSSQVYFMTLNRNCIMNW
# Calcium/calmodulin-dependent protein kinase type 1 (Homo sapiens), sequence (Q14012 whole entry, looked up): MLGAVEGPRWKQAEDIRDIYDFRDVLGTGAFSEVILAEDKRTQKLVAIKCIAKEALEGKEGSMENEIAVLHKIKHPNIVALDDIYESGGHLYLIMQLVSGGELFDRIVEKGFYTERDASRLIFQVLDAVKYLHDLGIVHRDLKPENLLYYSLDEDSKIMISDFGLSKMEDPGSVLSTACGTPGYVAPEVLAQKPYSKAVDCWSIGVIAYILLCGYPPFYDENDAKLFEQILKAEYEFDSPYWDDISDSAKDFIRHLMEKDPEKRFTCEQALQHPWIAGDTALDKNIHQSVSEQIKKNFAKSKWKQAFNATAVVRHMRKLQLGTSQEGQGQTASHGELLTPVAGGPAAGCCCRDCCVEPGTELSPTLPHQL
# Casein kinase I isoform alpha, sequence (P48729 2-337 limits assumed): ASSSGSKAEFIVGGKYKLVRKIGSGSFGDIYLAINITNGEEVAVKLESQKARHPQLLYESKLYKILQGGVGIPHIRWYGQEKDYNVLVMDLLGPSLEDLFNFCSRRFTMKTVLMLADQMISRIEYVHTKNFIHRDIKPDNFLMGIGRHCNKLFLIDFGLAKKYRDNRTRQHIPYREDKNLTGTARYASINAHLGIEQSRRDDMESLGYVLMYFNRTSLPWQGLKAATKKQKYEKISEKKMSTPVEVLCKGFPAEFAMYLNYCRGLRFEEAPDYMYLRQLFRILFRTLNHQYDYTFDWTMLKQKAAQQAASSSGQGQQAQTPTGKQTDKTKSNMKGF
# Ephrin type-A receptor 5 (Homo sapiens), sequence (P54756 whole entry): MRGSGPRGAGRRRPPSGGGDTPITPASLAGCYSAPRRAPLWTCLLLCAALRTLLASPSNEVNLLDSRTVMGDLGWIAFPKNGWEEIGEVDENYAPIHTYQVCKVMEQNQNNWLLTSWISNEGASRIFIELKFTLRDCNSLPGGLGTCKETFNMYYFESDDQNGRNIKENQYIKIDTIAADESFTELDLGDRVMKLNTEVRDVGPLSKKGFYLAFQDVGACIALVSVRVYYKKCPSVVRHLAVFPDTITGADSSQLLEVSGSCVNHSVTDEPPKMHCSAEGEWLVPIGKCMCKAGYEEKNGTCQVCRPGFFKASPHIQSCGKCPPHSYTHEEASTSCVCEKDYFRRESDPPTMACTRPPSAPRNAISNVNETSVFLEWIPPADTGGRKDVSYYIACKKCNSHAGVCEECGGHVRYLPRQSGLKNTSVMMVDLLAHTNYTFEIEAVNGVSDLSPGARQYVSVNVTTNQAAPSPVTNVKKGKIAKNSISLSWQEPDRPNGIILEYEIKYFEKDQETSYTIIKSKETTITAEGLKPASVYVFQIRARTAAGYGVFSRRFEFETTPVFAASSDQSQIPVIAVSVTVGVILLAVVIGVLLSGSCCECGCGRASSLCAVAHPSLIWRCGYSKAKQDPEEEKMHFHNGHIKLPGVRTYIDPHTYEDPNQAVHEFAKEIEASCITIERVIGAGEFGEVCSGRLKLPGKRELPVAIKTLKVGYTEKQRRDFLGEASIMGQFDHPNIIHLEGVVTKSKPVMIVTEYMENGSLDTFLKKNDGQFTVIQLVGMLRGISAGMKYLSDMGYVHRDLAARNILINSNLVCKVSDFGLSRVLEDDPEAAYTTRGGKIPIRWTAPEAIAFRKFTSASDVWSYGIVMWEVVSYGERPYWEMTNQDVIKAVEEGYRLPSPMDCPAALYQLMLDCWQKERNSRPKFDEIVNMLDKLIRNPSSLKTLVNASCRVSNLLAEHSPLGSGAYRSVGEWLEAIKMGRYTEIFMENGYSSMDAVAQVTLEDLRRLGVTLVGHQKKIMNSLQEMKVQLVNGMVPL
smiles,measurement,setting,value
COc1cc(N(C)c2ccnc3ccc(C(F)(F)F)cc23)cc(OC)c1OC,% binding,[1],90%
O=C(NOC[C@H](O)CO)c1ccc(F)c(F)c1Nc1ccc(I)cc1F,% of control,[2],100%
same,% of control,[3],80%
O[C@H]1CC[C@H](Nc2ncc3nc(Nc4c(F)cc(F)cc4F)n([C@H]4CCOC4)c3n2)CC1,% of control,[4],100%
CC[C@@H]1[C@H](F)C(=O)N[C@@H]1COc1nccc2cc(C(N)=O)c(OC)cc12 [ZIMLOVISERTIB],% of inhibition,[5]; at 0.01 µM,-2.6%
same,% of inhibition,[5]; at 0.04 µM,9.8%
same,% of inhibition,[5]; at 0.2 µM,1.9%
same,% of inhibition,[5]; at 1 µM,-7.1%
same,% of inhibition,[5]; at 5 µM,-4.3%
same,% of inhibition,[6],-12.5%
CCN(CC)CCCCNc1ncc2cc(-c3cc(OC)cc(OC)c3)c(NC(=O)NC(C)(C)C)nc2n1,% of control,[7],100%
CCC(=O)N1CCN(c2ccc(-n3c(=O)ccc4cnc5ccc(-c6cnc7ccccc7c6)cc5c43)cc2C(F)(F)F)CC1,% of control,Misshapen-like kinase 1,19%
